In patent US20230407243A1, “GENETIC PLATFORM TO INVESTIGATE THE FUNCTIONS OF BACTERIAL DRUG EFFLUX PUMPS” (priority 2022, published 2023):

Columns and labels:
Assay in all cases: MIC susceptibility profiling, porinated efflux platform
Type in all cases: cell-based, Escherichia coli
[1] = tested on: EKO-35 araC::mexCD Pore; details: for Fold changes of MICs: EKO-35 araC::mexCD Pore compared to EKO-35-Pore; for Minimum inhibitory concentration: EKO-35 araC::mexCD Pore, technical duplicate; for efflux pump-mediated resistance vs EKO-35-Pore: MexCD, OM compromised
Method in brief: (§1)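 MIC values come from background-corrected OD600 readings (pre-incubation OD subtracted) after 18 h at 37 °C and 900 rpm in MHB II. Compounds were tested in duplicate as 2-fold dilutions. The inoculum came from 18 h LB cultures adjusted to OD600 ~1.0 and diluted 1/2000, and the pore-bearing strains were vancomycin-checked beforehand.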

[2] = tested on: EKO-35 araC::acrB Pore; details: for Fold changes of MICs: EKO-35 araC::acr-B Pore compared to EKO-35-Pore; for Minimum inhibitory concentration, EKO-35 araC::acrB Pore: Table 14A, porinated, technical duplicate
Method in brief: as §1

[3] = tested on: EKO-35 araC::acrEF Pore; details: for Fold changes of MICs: EKO-35 araC::acrEF Pore compared to EKO-35-Pore; for Minimum inhibitory concentration, EKO-35 araC::acrEF Pore: Table 14A, porinated, technical duplicate
Method in brief: as §1

[4] = tested on: EKO-35 araC::mdtBC Pore; details: for Fold changes of MICs: EKO-35 araC::mdtBC Pore compared to EKO-35-Pore; for Minimum inhibitory concentration: EKO-35 araC::mdtBC Pore, technical duplicate
Method in brief: as §1

[5] = tested on: EKO-35 araC::emrAB Pore; details: for Fold changes of MICs: EKO-35 araC::emrAB Pore compared to EKO-35-Pore; for Minimum inhibitory concentration: EKO-35 araC::emrAB Pore, technical duplicate
Method in brief: as §1

[6] = tested on: EKO-35 araC::mdtEF Pore; details: for Fold changes of MICs: EKO-35 araC::mdtEF Pore compared to EKO-35-Pore; for Minimum inhibitory concentration, EKO-35 araC::mdtEF Pore: Table 14A, porinated, technical duplicate
Method in brief: as §1

[7] = tested on: EKO-35 araC::macAB Pore; details: for Fold changes of MICs: EKO-35 araC::macAB Pore compared to EKO-35-Pore; for Minimum inhibitory concentration: EKO-35 araC::macAB Pore, technical duplicate
Method in brief: as §1

N#CC(=NNc1cccc(C(F)(F)F)c1)C(=O)c1ccsc1 [compound 3]
Fold changes of MICs [1]: 1 fold
Minimum inhibitory concentration [1]: 320 µg/mL
Fold changes of MICs [2]: 1 fold
Minimum inhibitory concentration, EKO-35 araC::acrB Pore [2]: 320 µg/mL
Fold changes of MICs [3]: 1 fold
Minimum inhibitory concentration, EKO-35 araC::acrEF Pore [3]: 320 µg/mL
Fold changes of MICs [4]: 1 fold
Minimum inhibitory concentration [4]: 320 µg/mL
Fold changes of MICs [5]: 1 fold
Minimum inhibitory concentration [5]: 320 µg/mL
Fold changes of MICs [6]: 1 fold
Minimum inhibitory concentration, EKO-35 araC::mdtEF Pore [6]: 320 µg/mL
Fold changes of MICs [7]: 1 fold
Minimum inhibitory concentration [7]: 320 µg/mL

CC(C)(C)c1cc(C(=O)NNC(=O)Nc2cccc3ccccc23)n(Cc2ccc(F)cc2)n1 [compound 4]
Fold changes of MICs [1]: 16 fold
Minimum inhibitory concentration [1]: 40 µg/mL
Fold changes of MICs [2]: 128 fold
Minimum inhibitory concentration, EKO-35 araC::acrB Pore [2]: 320 µg/mL
Minimum inhibitory concentration, EKO-35 araC::acrEF Pore [3]: 320 µg/mL
Fold changes of MICs [4]: 1 fold
Minimum inhibitory concentration [4]: 2.5 µg/mL
Fold changes of MICs [5]: 8 fold
Minimum inhibitory concentration [5]: 20 µg/mL
Minimum inhibitory concentration, EKO-35 araC::mdtEF Pore [6]: 320 µg/mL
Fold changes of MICs [7]: 2 fold
Minimum inhibitory concentration [7]: 5 µg/mL

O=c1oc(-c2ccccc2Cl)nn1-c1ccc(C(F)(F)F)cn1 [compound 5]
Fold changes of MICs [1]: 16 fold
Minimum inhibitory concentration [1]: 320 µg/mL
Fold changes of MICs [2]: 16 fold
Minimum inhibitory concentration, EKO-35 araC::acrB Pore [2]: 320 µg/mL
Fold changes of MICs [3]: 16 fold
Minimum inhibitory concentration, EKO-35 araC::acrEF Pore [3]: 320 µg/mL
Minimum inhibitory concentration [4]: 10 µg/mL
Fold changes of MICs [5]: 16 fold
Minimum inhibitory concentration [5]: 320 µg/mL
Minimum inhibitory concentration, EKO-35 araC::mdtEF Pore [6]: 320 µg/mL
Fold changes of MICs [7]: 1 fold
Minimum inhibitory concentration [7]: 10 µg/mL

O=C(Nc1ccccc1)Nc1ccc(Br)c(C(F)(F)F)c1 [compound 6]
Fold changes of MICs [1]: 1 fold
Minimum inhibitory concentration [1]: 320 µg/mL
Fold changes of MICs [2]: 1 fold
Minimum inhibitory concentration, EKO-35 araC::acrB Pore [2]: 320 µg/mL
Fold changes of MICs [3]: 1 fold
Minimum inhibitory concentration, EKO-35 araC::acrEF Pore [3]: 320 µg/mL
Fold changes of MICs [4]: 1 fold
Minimum inhibitory concentration [4]: 320 µg/mL
Fold changes of MICs [5]: 1 fold
Minimum inhibitory concentration [5]: 320 µg/mL
Fold changes of MICs [6]: 1 fold
Minimum inhibitory concentration, EKO-35 araC::mdtEF Pore [6]: 320 µg/mL
Fold changes of MICs [7]: 1 fold
Minimum inhibitory concentration [7]: 320 µg/mL

O=C(Nc1ccc(C(F)(F)F)cc1)Nc1ccc(C(F)(F)F)cc1 [compound 7]
Fold changes of MICs [1]: 1 fold
Minimum inhibitory concentration [1]: 320 µg/mL
Fold changes of MICs [2]: 1 fold
Minimum inhibitory concentration, EKO-35 araC::acrB Pore [2]: 320 µg/mL
Fold changes of MICs [3]: 1 fold
Minimum inhibitory concentration, EKO-35 araC::acrEF Pore [3]: 320 µg/mL
Fold changes of MICs [4]: 1 fold
Minimum inhibitory concentration [4]: 320 µg/mL
Fold changes of MICs [5]: 1 fold
Minimum inhibitory concentration [5]: 320 µg/mL
Fold changes of MICs [6]: 1 fold
Minimum inhibitory concentration, EKO-35 araC::mdtEF Pore [6]: 320 µg/mL
Fold changes of MICs [7]: 1 fold
Minimum inhibitory concentration [7]: 320 µg/mL

N#CC(C#N)=NNc1ccc(-n2ccc(C(F)(F)F)n2)cc1 [compound 8]
Fold changes of MICs [1]: 1 fold
Minimum inhibitory concentration [1]: 80 µg/mL
Fold changes of MICs [2]: 2 fold
Minimum inhibitory concentration, EKO-35 araC::acrB Pore [2]: 160 µg/mL
Fold changes of MICs [3]: 1 fold
Minimum inhibitory concentration, EKO-35 araC::acrEF Pore [3]: 40 µg/mL
Fold changes of MICs [4]: 1 fold
Minimum inhibitory concentration [4]: 80 µg/mL
Fold changes of MICs [5]: 1 fold
Minimum inhibitory concentration [5]: 40 µg/mL
Fold changes of MICs [6]: 1 fold
Minimum inhibitory concentration, EKO-35 araC::mdtEF Pore [6]: 80 µg/mL
Fold changes of MICs [7]: 1 fold
Minimum inhibitory concentration [7]: 80 µg/mL

COC(=O)c1sc(N2CCCC2)c(C#N)c1-c1cccs1 [compound 10]
Fold changes of MICs [1]: 16 fold
Minimum inhibitory concentration [1]: 160 µg/mL
efflux pump-mediated resistance vs EKO-35-Pore [1]: increased resistance
efflux pump-mediated resistance vs EKO-35-Pore ([2]; AcrB with the pore): increased resistance
Fold changes of MICs [2]: 16 fold
Minimum inhibitory concentration, EKO-35 araC::acrB Pore [2]: 160 µg/mL
efflux pump-mediated resistance vs EKO-35-Pore ([3]; AcrEF with the pore): increased resistance
Fold changes of MICs [3]: 16 fold
Minimum inhibitory concentration, EKO-35 araC::acrEF Pore [3]: 160 µg/mL
Fold changes of MICs [4]: 1 fold
Minimum inhibitory concentration [4]: 10 µg/mL
Fold changes of MICs [5]: 16 fold
Minimum inhibitory concentration [5]: 160 µg/mL
efflux pump-mediated resistance vs EKO-35-Pore ([5]; EmrAB, porinated strain): associated with resistance
Fold changes of MICs [6]: 16 fold
efflux pump-mediated resistance vs EKO-35-Pore ([6]; MdtEF with the pore): increased resistance
Minimum inhibitory concentration, EKO-35 araC::mdtEF Pore [6]: 160 µg/mL
Fold changes of MICs [7]: 1 fold
Minimum inhibitory concentration [7]: 10 µg/mL

O=[N+]([O-])c1ccc2c(c1)C(=NO)c1cc([N+](=O)[O-])ccc1-2 [compound 11]
Fold changes of MICs [1]: 8 fold
Minimum inhibitory concentration [1]: 0.625 µg/mL
Fold changes of MICs [2]: 1024 fold
Minimum inhibitory concentration, EKO-35 araC::acrB Pore [2]: 80 µg/mL
Minimum inhibitory concentration, EKO-35 araC::acrEF Pore [3]: 80 µg/mL
Fold changes of MICs [4]: 1 fold
Minimum inhibitory concentration [4]: 0.078 µg/mL
Fold changes of MICs [5]: 16 fold
Minimum inhibitory concentration [5]: 1.25 µg/mL
Fold changes of MICs [6]: 64 fold
Minimum inhibitory concentration, EKO-35 araC::mdtEF Pore [6]: 5 µg/mL
Fold changes of MICs [7]: 1 fold
Minimum inhibitory concentration [7]: 0.078 µg/mL

CC(C)c1ccc(C=C(C#N)c2nc3ccccc3[nH]2)cc1 [compound 12]
Fold changes of MICs [1]: 2 fold
Minimum inhibitory concentration [1]: 320 µg/mL
Fold changes of MICs [2]: 2 fold
Minimum inhibitory concentration, EKO-35 araC::acrB Pore [2]: 320 µg/mL
Fold changes of MICs [3]: 2 fold
Minimum inhibitory concentration, EKO-35 araC::acrEF Pore [3]: 320 µg/mL
Fold changes of MICs [4]: 2 fold
Minimum inhibitory concentration [4]: 320 µg/mL
Fold changes of MICs [5]: 2 fold
Minimum inhibitory concentration [5]: 320 µg/mL
Minimum inhibitory concentration, EKO-35 araC::mdtEF Pore [6]: 320 µg/mL
Fold changes of MICs [7]: 2 fold
Minimum inhibitory concentration [7]: 320 µg/mL

O=C(NC(=O)N1CCc2c([nH]c3ccccc23)C1C(F)(F)F)c1ccccc1 (stereo not shown) [compound 13]
Fold changes of MICs [1]: 1 fold
Minimum inhibitory concentration [1]: 5 µg/mL
efflux pump-mediated resistance vs EKO-35-Pore [1]: no longer associated MexCD with resistance
Fold changes of MICs [2]: 64 fold
Minimum inhibitory concentration, EKO-35 araC::acrB Pore [2]: 320 µg/mL
Minimum inhibitory concentration, EKO-35 araC::acrEF Pore [3]: 20 µg/mL
Fold changes of MICs [4]: 1 fold
Minimum inhibitory concentration [4]: 5 µg/mL
Fold changes of MICs [5]: 2 fold
Minimum inhibitory concentration [5]: 10 µg/mL
Fold changes of MICs [6]: 8 fold
Minimum inhibitory concentration, EKO-35 araC::mdtEF Pore [6]: 40 µg/mL
Fold changes of MICs [7]: 1 fold
Minimum inhibitory concentration [7]: 5 µg/mL
